Source: patent US11154544B2, “Amide derivatives as Nav1.7 and Nav1.8 blockers” (RaQualia Pharma Inc., priority 2017, dated 2021)
Like-named read-outs stand apart in the source and are kept apart here.

Target: Nav1.7 (Homo sapiens (Human), UniProt Q15858)
Assay: EFS-FRET assay
Type: cell-based
Method: This screen is used to determine the effects of compounds on human Nav1.7 channels, utilizing electrical field stimulation (EFS) system in 96-well plate format on FDSS (Hamamatsu Photonics) platform. The change of membrane potential is monitored with FRET dye pair, DiSBAC2(3) and PTS 18.
CHO (Chinese hamster ovary) cells expressing human Nav1.7 channels are grown in T225 flasks, in a 5% CO2 humidified incubator to about 80% confluence. Media composition consists of HAM/F^.12 with Glutamax I, 10% FCS, 100 units/mL penicillin and 100 microgram/mL hygromycin.
Seed each cell lines (1×10^5 cells/well) into 96-well plates prior to experimentation.
Incubate at 37° C. in 5% CO2, for 24 hours.
Wash each well with assay buffer (140 mM NaCl, […], 10 mM D-Glucose, 2 mM CaCl2, 1 mM MgCl2, 10 mM HEPES, pH 7.4 adjusted with NaOH) twice.
Add 1st loading solution containing 10 microM PTS18 and 0.06% Pluronic F-127 in assay buffer.
Incubate the plate at rt in dark for 1 hour. • Remove 1st loading solution and add 2nd loading solution containing 12.5 microM DiSBAC2(3), 1.25 mM Xylene Fast Yellow and 0.0075% Pluronic F-127 in assay buffer. • Place the plate under the dark at rt for 25 minutes. • Add compound solutions into the assay plate. • Set the assay plate in FDSS and place an EFS device on the plate. • Measure EFS-induced fluorescent response by FDSS.
The data are analyzed and reported as normalized ratios of intensities measured at […]. The process of calculating these ratios is performed as follows:
This analysis is performed using a computerized specific program designed for
FDSS generated data. Fluorescence ratio values are plotted using XLfit to determine an IC50 value for each, compound.

[1] = EFS-FRET, CHO cells expressing human Nav1.7, read-out: IC50 against Nav1.7
[2] = Table 1, read-out: Nav1.7 activity (IC50)

Sequence of Nav1.7 (Q15858 whole entry): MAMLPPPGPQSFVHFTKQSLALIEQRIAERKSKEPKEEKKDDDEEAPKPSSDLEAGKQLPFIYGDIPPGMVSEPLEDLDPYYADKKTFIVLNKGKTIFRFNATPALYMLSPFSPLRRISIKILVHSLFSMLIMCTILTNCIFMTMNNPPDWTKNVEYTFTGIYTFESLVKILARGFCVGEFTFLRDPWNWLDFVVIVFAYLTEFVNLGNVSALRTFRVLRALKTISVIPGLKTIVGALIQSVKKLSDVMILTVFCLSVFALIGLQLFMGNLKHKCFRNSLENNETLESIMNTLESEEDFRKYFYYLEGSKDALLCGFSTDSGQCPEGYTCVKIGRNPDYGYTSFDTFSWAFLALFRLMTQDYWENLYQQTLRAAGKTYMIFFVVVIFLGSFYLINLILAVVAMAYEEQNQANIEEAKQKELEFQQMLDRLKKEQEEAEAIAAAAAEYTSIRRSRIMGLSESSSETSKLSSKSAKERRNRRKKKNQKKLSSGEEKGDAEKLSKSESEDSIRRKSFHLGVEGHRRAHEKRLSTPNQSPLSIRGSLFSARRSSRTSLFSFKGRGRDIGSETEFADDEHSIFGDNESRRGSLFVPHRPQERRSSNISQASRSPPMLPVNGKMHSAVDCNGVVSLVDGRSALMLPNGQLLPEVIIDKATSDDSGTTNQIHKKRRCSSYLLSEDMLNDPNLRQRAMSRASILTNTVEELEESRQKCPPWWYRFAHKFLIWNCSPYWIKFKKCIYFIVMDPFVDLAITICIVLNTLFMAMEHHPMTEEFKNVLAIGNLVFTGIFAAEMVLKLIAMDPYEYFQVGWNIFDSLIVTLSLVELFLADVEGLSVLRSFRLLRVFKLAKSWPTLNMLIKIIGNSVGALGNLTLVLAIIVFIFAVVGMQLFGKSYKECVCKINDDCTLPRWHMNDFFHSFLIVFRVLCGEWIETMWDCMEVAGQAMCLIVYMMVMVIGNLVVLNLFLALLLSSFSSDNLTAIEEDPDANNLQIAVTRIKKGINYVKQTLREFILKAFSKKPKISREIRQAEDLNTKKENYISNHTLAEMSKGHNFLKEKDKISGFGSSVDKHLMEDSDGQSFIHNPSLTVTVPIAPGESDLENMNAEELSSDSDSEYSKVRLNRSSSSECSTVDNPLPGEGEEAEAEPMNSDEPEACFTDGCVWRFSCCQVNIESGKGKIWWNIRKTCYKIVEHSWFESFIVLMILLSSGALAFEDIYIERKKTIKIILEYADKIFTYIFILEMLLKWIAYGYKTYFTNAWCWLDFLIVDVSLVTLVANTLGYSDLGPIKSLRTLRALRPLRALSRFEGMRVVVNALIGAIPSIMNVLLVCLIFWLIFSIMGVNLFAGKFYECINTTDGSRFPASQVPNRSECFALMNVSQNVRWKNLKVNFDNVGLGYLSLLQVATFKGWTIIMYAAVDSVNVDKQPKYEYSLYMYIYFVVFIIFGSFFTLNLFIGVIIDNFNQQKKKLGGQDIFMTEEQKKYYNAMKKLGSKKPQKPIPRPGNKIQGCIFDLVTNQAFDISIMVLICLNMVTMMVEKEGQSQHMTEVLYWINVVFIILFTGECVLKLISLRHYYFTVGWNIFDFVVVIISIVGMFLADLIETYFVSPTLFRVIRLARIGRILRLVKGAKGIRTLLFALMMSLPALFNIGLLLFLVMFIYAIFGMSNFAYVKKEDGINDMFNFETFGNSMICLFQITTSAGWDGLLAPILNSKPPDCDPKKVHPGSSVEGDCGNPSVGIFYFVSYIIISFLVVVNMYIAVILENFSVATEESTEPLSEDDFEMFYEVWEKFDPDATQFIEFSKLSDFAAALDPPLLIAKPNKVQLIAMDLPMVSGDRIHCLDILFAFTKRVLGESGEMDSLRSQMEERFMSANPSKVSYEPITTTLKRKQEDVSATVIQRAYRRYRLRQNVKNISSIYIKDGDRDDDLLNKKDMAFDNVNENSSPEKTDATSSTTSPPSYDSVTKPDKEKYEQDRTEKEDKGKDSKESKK

| SMILES | IC50 [1] | IC50 [2] |
| --- | --- | --- |
| O=C(NCCOc1ccc2cc(C(F)(F)F)ccc2n1)c1ccnc(NC(=O)C2CC2)c1 [Example 45] | < 500 nM | – |
| Cc1cc(C(=O)NCCOc2ccc(C(F)(F)F)cc2Cl)cc(NC(=O)C2CC2)n1 [Example 41] | < 500 nM | – |
| CCC(=O)Nc1cc(C(=O)NCCNc2ncc(C(F)(F)F)cc2Cl)cc(C)n1 [Example 5] | < 500 nM | – |
| Cc1cc(C(=O)NCCOc2ccc3cc(C(F)(F)F)ccc3n2)cc(NC(=O)C(C)C)n1 [Example 60] | < 500 nM | – |
| Cc1cc(C(=O)NCCOc2ccc(OC(F)(F)F)cc2Cl)cc(NC(=O)C2CC2)n1 [Example 115] | < 500 nM | – |
| CC(=O)Nc1cc(C(=O)N[C@H](C)COc2ncc(C(F)(F)F)cc2Cl)cc(C)n1 [Example 65] | < 500 nM | – |
| CCC(=O)Nc1cc(C(=O)NCCOc2ccc(S(F)(F)(F)(F)F)cc2)ccn1 [Example 32] | < 500 nM | – |
| CC(=O)Nc1cc(C(=O)NCCOc2ccc(OC(F)(F)F)c(F)c2)ccn1 [Example 154] | < 500 nM | – |
| COc1cc(C(F)(F)F)ccc1OCCNC(=O)c1ccnc(NC(C)=O)c1 [Example 126] | < 500 nM | – |
| COc1cc(C(F)(F)F)ccc1OCCNC(=O)c1cc(C)nc(NC(=O)C2CC2)c1 [Example 132] | < 500 nM | – |
| CC(C)C(=O)Nc1cc(C(=O)NCCOc2ccc(OC(F)(F)F)cc2Cl)ccn1 [Example 107] | < 500 nM | – |
| CC(=O)Nc1cc(C(=O)NCCOc2ccc3cc(C(F)(F)F)ccc3n2)cc(C)n1 [Example 58] | < 500 nM | – |
| CCC(=O)Nc1nc(C)cc(C(=O)NCCOc2ncc(C(F)(F)F)cc2Cl)n1 [Example 89] | < 500 nM | – |
| CC(C)C(=O)Nc1cc(C(=O)NCCOc2ccnc3cc(C(F)(F)F)ccc23)ccn1 [Example 80] | < 500 nM | – |
| Cc1cc(C(F)(F)F)ccc1OCCNC(=O)c1ccnc(NC(=O)C2CC2)c1 [Example 142] | < 500 nM | – |
| CC(C)C(=O)Nc1cc(C(=O)NCCOc2ccc(C(F)(F)F)cc2F)ccn1 [Example 96] | < 500 nM | – |
| CC(=O)Nc1cc(C(=O)NCCOc2ccc3cc(C(F)(F)F)ccc3n2)ccn1 [Example 56] | < 500 nM | – |
| CCC(=O)Nc1cc(C(=O)NCCOc2ccc(C(F)(F)F)cc2OC)ccn1 [Example 127] | < 500 nM | – |
| Cc1cc(C(=O)NCCOc2ncc(C(F)(F)F)cc2Cl)nc(NC(=O)C2CC2)n1 [Example 16] | < 500 nM | – |
| CCC(=O)Nc1cc(C(=O)NCCOc2ccc(C(F)(F)F)cc2Cl)ccn1 [Example 21] | < 500 nM | – |
| CCC(=O)Nc1cc(C(=O)NCCOc2ccc(C(F)(F)F)cc2C)ccn1 [Example 139] | < 500 nM | – |
| CCC(=O)Nc1cc(C(=O)NCCOc2ccc(C(F)(F)F)cc2OC)cc(C)n1 [Example 129] | < 500 nM | – |
| CCC(=O)Nc1cc(C(=O)NCCOc2ccc(C(F)(F)F)cc2Cl)cc(C)n1 [Example 39] | < 500 nM | – |
| CCC(=O)Nc1cc(C(=O)NCCOc2ccc(OC(F)(F)F)cc2Cl)cc(C)n1 [Example 105] | < 500 nM | – |

| SMILES | IC50 [1] | IC50 [2] |
| --- | --- | --- |
| Cc1cc(C(=O)N[C@H](C)COc2ncc(C(F)(F)F)cc2Cl)cc(NC(=O)C2CC2)n1 [Example 69] | < 500 nM | – |
| CCC(=O)Nc1cc(C(=O)NCCOc2ncc(C(F)(F)F)cc2Cl)ccn1 [Example 9] | < 500 nM | – |
| Cc1cc(C(=O)NCCOc2ncc(C(F)(F)F)cc2Cl)nc(NC(=O)C(C)C)n1 [Example 90] | < 500 nM | – |
| CC(C)C(=O)Nc1cc(C(=O)N[C@H](C)COc2ncc(C(F)(F)F)cc2Cl)ccn1 [Example 68] | < 500 nM | – |
| O=C(NCCOc1ccc(OC(F)(F)F)cc1Cl)c1ccnc(NC(=O)C2CC2)c1 [Example 117] | < 500 nM | – |
| CC(=O)Nc1cc(C(=O)NCCOc2ccc(OC(F)(F)F)c(F)c2)cc(C)n1 [Example 152] | < 500 nM | – |
| CC(=O)Nc1cc(C(=O)NC[C@@H](C)Oc2ncc(C(F)(F)F)cc2Cl)cc(C)n1 [Example 73] | < 500 nM | – |
| CC(C)C(=O)Nc1cc(C(=O)NCCOc2ccc(S(F)(F)(F)(F)F)cc2)ccn1 [Example 34] | < 500 nM | – |
| CCC(=O)Nc1cc(C(=O)NCCOc2ncc(C(F)(F)F)cc2Cl)cc(C)n1 [Example 15] | < 500 nM | – |
| Cc1cc(C(=O)NCCOc2ccc3cc(C(F)(F)F)ccc3n2)cc(NC(=O)C2CC2)n1 [Example 59] | < 500 nM | – |
| CCC(=O)Nc1cc(C(=O)NCCOc2ccc(OC(F)(F)F)c(F)c2)ccn1 [Example 148] | < 500 nM | – |
| CCCC(=O)Nc1cc(C(=O)NCCOc2ncc(C(F)(F)F)cc2Cl)ccn1 [Example 87] | < 500 nM | – |
| O=C(NCCOc1ncc(C(F)(F)F)cc1Cl)c1ncccc1Cl [No. 1-3, reference compound] | > 3000 nM | > 3000 nM |
| O=C(NCCOc1ncc(C(F)(F)F)cc1Cl)c1ccnc(NC(=O)C2CC2)c1 [Example 14] | < 500 nM | – |
| O=C(NCCNc1ncc(C(F)(F)F)cc1Cl)c1ccnc(NC(=O)C2CC2)n1 [Example 38] | < 500 nM | – |
| O=C(NCCOc1ncc(C(F)(F)F)cc1Cl)c1cccnc1C(F)(F)F [No. 1-63, reference compound] | > 3000 nM | > 3000 nM |
| O=C(NCCOc1ccc(OC(F)(F)F)c(F)c1)c1ccnc(NC(=O)C2CC2)c1 [Example 151] | < 500 nM | – |
| CC(=O)Nc1cc(C(=O)NCCOc2ccc(C(F)(F)F)cc2F)cc(C)n1 [Example 93] | < 500 nM | – |
| Cc1cc(C(=O)NCCOc2ccc(C(F)(F)F)cc2Cl)cc(NC(=O)C(C)C)n1 [Example 42] | < 500 nM | – |
| COc1cc(C(F)(F)F)ccc1OCCNC(=O)c1ccnc(NC(=O)C2CC2)n1 [Example 134] | < 500 nM | – |
| O=C(NCCOc1ccc(OC(F)(F)F)c(F)c1)c1ccnc(NC(=O)C2CC2)n1 [Example 150] | < 500 nM | – |
| Cc1cc(C(=O)NCCNc2ncc(C(F)(F)F)cc2Cl)cc(NC(=O)C(C)C)n1 [Example 37] | < 500 nM | – |
| O=C(NCCNc1ncc(C(F)(F)F)cc1Cl)c1ccnc(NC(=O)C2CC2)c1 [Example 6] | < 500 nM | – |
| CC(=O)Nc1cc(C(=O)NCCNc2ncc(C(F)(F)F)cc2Cl)ccn1 [Example 2] | < 500 nM | – |

| SMILES | IC50 [1] | IC50 [2] |
| --- | --- | --- |
| CCC(=O)Nc1cc(C(=O)NCCOc2ccc(OC(F)(F)F)cc2Cl)ccn1 [Example 114] | < 500 nM | – |
| CCC(=O)Nc1cc(C(=O)NCCOc2ccc(C(F)(F)F)cc2C)cc(C)n1 [Example 141] | < 500 nM | – |
| CC(C)C(=O)Nc1cc(C(=O)NCCOc2ccc3cc(C(F)(F)F)ccc3n2)ccn1 [Example 46] | < 500 nM | – |
| COc1cc(C(F)(F)F)ccc1OCCNC(=O)c1cc(C)nc(NC(=O)C(C)C)c1 [Example 133] | < 500 nM | – |
| CCC(=O)Nc1cc(C(=O)NCCOc2ccc3cc(OCC(F)(F)F)ccc3c2)cc(C)n1 [Example 49] | < 500 nM | – |
| Cc1cc(C(=O)NC[C@@H](C)Oc2ncc(C(F)(F)F)cc2Cl)cc(NC(=O)C(C)C)n1 [Example 77] | < 500 nM | – |
| Cc1cc(C(=O)NCCOc2ccc(C(F)(F)F)cc2F)cc(NC(=O)C2CC2)n1 [Example 97] | < 500 nM | – |
| CC(=O)Nc1cc(C(=O)NCCCc2ncc(C(F)(F)F)cc2Cl)cc(C)n1 [Example 28] | < 500 nM | – |
| CCC(=O)Nc1cc(C(=O)NC[C@@H](C)Oc2ncc(C(F)(F)F)cc2Cl)cc(C)n1 [Example 74] | < 500 nM | – |
| O=C(NCCOc1ccc(OC(F)(F)F)cc1Cl)C1C=C(NC(=O)C2CC2)N=CC1 (centres unmarked) [Example 106] | < 500 nM | – |
| CCC(=O)Nc1cc(C(=O)NCCOc2ccc3cc(C(F)(F)F)ccc3n2)ccn1 [Example 57] | < 500 nM | – |
| CC(=O)Nc1cc(C(=O)NCCOc2ncc(C(F)(F)F)cc2Cl)cc(C)n1 [Example 10] | < 500 nM | – |
| COc1cc(C(F)(F)F)ccc1OCCNC(=O)c1ccnc(NC(=O)C(C)C)c1 [Example 131] | < 500 nM | – |
| Cc1cc(C(F)(F)F)ccc1OCCNC(=O)c1ccnc(NC(=O)C2CC2)n1 [Example 146] | < 500 nM | – |
| COc1cc(C(F)(F)F)ccc1OCCNC(=O)c1ccnc(NC(=O)C2CC2)c1 [Example 130] | < 500 nM | – |
| CC(=O)Nc1cc(C(=O)NCCOc2ccc(C(F)(F)F)cc2Cl)cc(C)n1 [Example 23] | < 500 nM | – |
| CCC(=O)Nc1cc(C(=O)NCCCc2ncc(C(F)(F)F)cc2Cl)ccn1 [Example 30] | < 500 nM | – |
| Cc1cc(C(=O)NCCOc2ccc(OC(F)(F)F)cc2Cl)cc(NC(=O)C(C)C)n1 [Example 108] | < 500 nM | – |
| Cc1cc(C(=O)NCCNc2ncc(C(F)(F)F)cc2Cl)cc(NC(=O)C2CC2)n1 [Example 26] | < 500 nM | – |
| C[C@H](COc1ncc(C(F)(F)F)cc1Cl)NC(=O)c1ccnc(NC(=O)C2CC2)n1 [Example 71] | < 500 nM | – |
| Cc1cc(C(=O)NCCOc2ccc(C(F)(F)F)cc2F)cc(NC(=O)C(C)C)n1 [Example 98] | < 500 nM | – |
| CCC(=O)Nc1cc(C(=O)NCCOc2ccc(C(F)(F)F)cn2)cc(C)n1 [Example 12] | < 500 nM | – |
| C[C@H](COc1ncc(C(F)(F)F)cc1Cl)NC(=O)c1ccnc(NC(=O)C2CC2)c1 [Example 67] | < 500 nM | – |
| CC(C)C(=O)Nc1cc(C(=O)NCCNc2ncc(C(F)(F)F)cc2Cl)ccn1 [Example 7] | < 500 nM | – |
